# According to patent US7618988B2, “Use of substituted aminomethyl chromans” (Merck Patentgesellschaft, priority 2001, dated 2009):
# Columns and labels:
# [1] = test system: reserpinized rat or mouse; assay: reserpinized rat or mouse (akinesia); assay type: in vivo; settings: 24 h after reserpine
# Procedure: A typical animal model is the reserpinized rat or mouse (e.g. M. S. Starr and B. S. Starr, J. Neural Transm.—Park. Dis. Dement. Sect., 1994; 7: 133-142; M. Gossel et al., J. Neural Transm.—Park. Dis. Dement. Sect., 1995; 10: 27-39; N. R. Hughes et al., Mov. Disord., 1998; 13: 228-233). Reserpine is a potent depleter of monoamines and produces nearly complete akinesia in both species. Prominent 24 h after application, the distance travelled and the time active is nearly zero as measured in conventional activity meters.
# rats [2] = assay: ultrasonic vocalization test in rats; settings: Rattus norvegicus, in vivo
# Description: The affinity to the 5-HT1A receptor can be determined in vitro by radioligand binding experiments according to Cossery J M et al. (Eur. J. Pharmacol. 1987; 140: 143-155). The functional agonistic properties at the 5HT1A receptor can be determined in vitro in the GTP-gamma-S test (Newman-Tancredi A et al., Eur. J. Pharmacol.1996; 307: 107-111). A standard in vivo animal model to test for the 5HT1A agonistic properties is the ultrasonic vocalization test in rats (e.g. deFry J et al., Eur. J. Pharmacol. 1993; 249: 331-339; Sanchez C, Behav. Pharmacol. 1993; 4: 269-277). The affinity for dopamine D4 receptors can be determined in vitro by radioligand binding experiments according to Klokow M et al. (Drug Res. 1986; 36: 197-200).
# rats [3] = assay: posthypoxic myoclonus in rats; settings: rat, in vivo
# Procedure: A typical animal model for myoclonus is myoclonus induced by an acute hypoxic episode according to D. D. Truong et al., Mov. Dsiord., 1994; 9: 201-206). In this model of posthypoxic myoclonus, rats undergo a cardiac arrest for 8 minutes and are resuscitated thereafter. Myoclonic jerks occur spontaneously but can be provoked by auditory stimulation, too, worsening over the days following cardiac arrest.
# [4] = test system: patients with Huntington's disease; assay: trial in patients with Huntington's disease; assay type: in vivo, human; settings: add on, 2.5 to 20 mg b.i.d.
# Procedure: A typical trial to establish the effect of the compounds according to the invention on chorea, voluntary motor performance, and functional disability in patients with Huntington's disease encompasses 32 genetically diagnosed patients. (2R,4R)-2-({[5-(4-fluorophenyl)-pyridin-3ylmethyl]-amino}-methyl)-chroman-4-ol monohydrochloride hemihydrate or placebo is administered as “add on” to the conventional treatment, which is maintained unchanged during the whole study. The dose of blinded medication is titrated over a period of 3 weeks in a range from 2.5 to 20 mg b.i.d. Then the medication is held constant for 1 week. Assessments are performed in the week before and at the last day of the trial. Chorea is scored using the abnormal involuntary movement scale (AIMS, W. Guy, in: ECDEU assessment manual. Rockville Md.: US dept. of health, education and welfare, 1976: 534-537), the unified Huntington's disease rating scale (UHDRS, Huntington study group, 1996, Movement Disord, 11: 13642), and judgement of video recordings. Voluntary motor performance is assessed using the UHDRS motor scale. Patients and their partners complete a questionnaire regarding functional disability.
# D2 receptors = D2 receptors (Homo sapiens, UniProt P14416); assay: binding / inhibitory effect at dopamine D2 receptor
# Sequence of D2 receptors (P14416 whole entry): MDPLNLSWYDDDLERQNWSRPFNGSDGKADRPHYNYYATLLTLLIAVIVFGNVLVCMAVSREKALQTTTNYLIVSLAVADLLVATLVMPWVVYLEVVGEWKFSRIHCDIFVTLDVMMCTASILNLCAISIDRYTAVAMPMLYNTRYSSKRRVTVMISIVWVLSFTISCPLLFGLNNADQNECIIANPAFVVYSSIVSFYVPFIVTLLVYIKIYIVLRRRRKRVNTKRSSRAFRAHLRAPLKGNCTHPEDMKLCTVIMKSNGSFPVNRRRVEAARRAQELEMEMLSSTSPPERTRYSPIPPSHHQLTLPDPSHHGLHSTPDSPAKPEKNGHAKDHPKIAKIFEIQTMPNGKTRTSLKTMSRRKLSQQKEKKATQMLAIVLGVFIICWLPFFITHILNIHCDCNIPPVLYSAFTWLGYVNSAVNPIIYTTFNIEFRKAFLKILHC
# mutant dystonic hamster = assay: mutant dystonic hamster; assay type: in vivo; settings: scoring system
# Description: A typical animal model is the mutant dystonic hamster according to A. Richter and W. Löscher, Prog. Neurobiol. 1998; 54: 633-677. In this genetically dystonic hamsters, dystonic attacks are provoked by taking the animal from the home cage and placing it on a balance. The dystonic syndrome consists of a sequence of abnormal movements, and the severity of the single symptoms is rated by a scoring system.
# [5] = test system: Parkinsonian cynomolgus monkey; assay: MPTP Parkinsonian cynomolgus monkey, l-dopa-induced adverse effects; assay type: in vivo; settings: MPTP monkeys chronically treated with l-dopa
# Procedure: Treatment of adverse effects of conventional anti-Parkinsonian drugs as defined above are determined in a modification of the animal model of the Parkinsonian cynomolgus monkey according to P. J. Blanchet et al., Exp. Neurology 1998; 153: 214-222. Monkeys render parkinsonian by repeated injections of 1-methyl-4-phenyl-1,2,3,6-tetrahydropyridine (MPTP). The Parkinsonian monkeys are chronically treated with the standard 1-dopa therapy according to P. J. Blanchet et al., Mov. Disord., 1998; 13: 798-802. Longterm treatment with l-dopa induces extrapyramidal motor side effects and psychotic states which are both qualitatively and quantitatively, assessed by the Abnormal Involuntary Movement Scale (P. J. Blanchet et al., Mov. Disord. 1998; 13: 798-802) for different body parts (face, neck, trunk, each limb) and by rating for psychotic states by observing the monkey's attention, reactivity and mobility.
# rat = assay: striatonigral degeneration model in the rat (turning behavior); assay type: in vivo; settings: induced by apomorphine or amphetamine
# Description: Another more recent animal model is the striatonigral degeneration approach in the rat according to G. K. Wenning et al., J. Neural Transm. Suppl., 1999; 55: 103-113. Rats receive an unilateral injection of 6-hydroxydopamine into the left medial forebrain bundle followed by an injection of quinolinic acid into the ipsilateral striatum inducing nigrostriatal degeneration. The degeneration results in turning behavior to a challenge with dopaminomimetics such as apomorphine or amphetamine. Turning behavior is measured by an automated recorder.
# [6] = test system: patients with cervical dystonia (spasmodic torticollis); assay: double-blind study in cervical dystonia (TWSTRS); assay type: in vivo, human; settings: 2.5 mg to 20 mg b.i.d.
# [7] = test system: oxotremorine-induced tremor; assay: oxotremorine-induced tremor; assay type: in vivo; settings: rating scale
# Procedure: A typical animal model for drug-induced tremors is the oxotremorine-induced tremor (e.g. H. Hallberg and O. Almgren, Acta Physiol. Scand., 1987; 129: 407-13; J. G. Clement and W. R. Dyck, J. Pharmacol. Meth., 1989; 22: 25-36). Oxotremorine induces tremor which is measured by a rating scale.
# Weaver mutant mouse = Weaver mutant mouse (locomotor activity); settings: in vivo
# Description: Typical genetic models in mutant animals are the Campus Syndrome in the Pietrain pig according to A. Richter et al. (Exp. Neurology, 1995; 134: 205-213) or the Weaver mutant mouse according to J. R. Simon and B. Ghetti (Mol. Neurobiol., 1994; 9: 183-189). In the Campus Syndrome model, these mutant pigs show a high-frequency tremor when standing and during locomotion, but not while lying at rest. Assessment of tremor is made by accelerometric recording. In the Weaver mutant mouse, degenerative cerebellar atrophy is […] in association with tremor, gait instability, and toppling over the sides after a few steps.
compound,measurement,setting,value
"O[C@@H]1C[C@H](CNCc2cncc(-c3ccc(F)cc3)c2)Oc2ccccc21 [(2R,4R)-2-({[5-(4-fluorophenyl)-pyridin-3ylmethyl]-amino}-methyl)-chroman-4-ol]",akinesia (distance travelled and time active),[1],dose-dependently reduce akinesia
same,ED50,rats [2],2 mg/kg
same,number of spontaneous and auditory-evoked myoclonic jerks,rats [3],dose-dependently reduce the number of spontaneous and autitory-evoked myoclonic jerks
same,voluntary and involuntary motor performance,[4],significant improvement of voluntary and involuntary motor performance
same,binding to D2 receptors,D2 receptors,no or only a very weak binding
same,severity of dystonic symptoms,mutant dystonic hamster,dose-dependently reduce the severity of dystonic symptoms
same,choreiform and dystonic dyskinesias (Abnormal Involuntary Movement Scale),[5],reduce overall choreiform dyskinesias and dystonic dyskinesias
same,psychotic states,[5],reduce
same,turning behavior,rat,dose-dependently antagonized
same,TWSTRS scores,[6],significant improvement
same,oxotremorine-induced tremors,[7],inhibit oxotremorine-induced tremors
same,locomotor activity,Weaver mutant mouse,enhance locomotor activity
